One may read the IC50 as the concentration needed to halve the response being measured. A high value points to weaker potency in that assay.

In this assay the target is NLRP3 (Homo sapiens, UniProt Q96P20). As to the kind of experiment: THP-1 cells pyroptosis assay. The assay is classed as cell-based. More on the design: Seed THP-1 cells (25,000 cells/well) containing 1.0 μg/ml LPS; host or cells: THP-1. Conditions: LPS 1.0 μg/ml, nigericin 5 μM, resazurin readout, 10 μM top dose (Example 2: top dose of 30 μM). On the procedure: THP-1 cells (ATCC #TIB-202) were grown in RPMI containing L-glutamine (Gibco #11835) supplemented with imM sodium pyruvate (Sigma #S8636) and penicillin (100 units/ml)/streptomycin (0.1 mg/ml) (Sigma #P4333) in 10% Fetal Bovine Serum (FBS) (Sigma #F0804). The cells were routinely passaged and grown to confluency (˜10^6 cells/ml). On the day of the experiment, THP-1 cells were harvested and resuspended into RPMI medium (without FBS). The cells were then counted and viability (>90%) checked by Trypan blue (Sigma #T8154). Appropriate dilutions were made to give a concentration of 625,000 cells/ml. To this diluted cell solution was added LPS (Sigma #L4524) to give a 1 μg/ml Final Assay Concentration (FAC). 40 μl of the final preparation was aliquoted into each well of a 96-well plate. The plate thus prepared was used for compound screening.
Sequence of NLRP3 (Q96P20 whole entry): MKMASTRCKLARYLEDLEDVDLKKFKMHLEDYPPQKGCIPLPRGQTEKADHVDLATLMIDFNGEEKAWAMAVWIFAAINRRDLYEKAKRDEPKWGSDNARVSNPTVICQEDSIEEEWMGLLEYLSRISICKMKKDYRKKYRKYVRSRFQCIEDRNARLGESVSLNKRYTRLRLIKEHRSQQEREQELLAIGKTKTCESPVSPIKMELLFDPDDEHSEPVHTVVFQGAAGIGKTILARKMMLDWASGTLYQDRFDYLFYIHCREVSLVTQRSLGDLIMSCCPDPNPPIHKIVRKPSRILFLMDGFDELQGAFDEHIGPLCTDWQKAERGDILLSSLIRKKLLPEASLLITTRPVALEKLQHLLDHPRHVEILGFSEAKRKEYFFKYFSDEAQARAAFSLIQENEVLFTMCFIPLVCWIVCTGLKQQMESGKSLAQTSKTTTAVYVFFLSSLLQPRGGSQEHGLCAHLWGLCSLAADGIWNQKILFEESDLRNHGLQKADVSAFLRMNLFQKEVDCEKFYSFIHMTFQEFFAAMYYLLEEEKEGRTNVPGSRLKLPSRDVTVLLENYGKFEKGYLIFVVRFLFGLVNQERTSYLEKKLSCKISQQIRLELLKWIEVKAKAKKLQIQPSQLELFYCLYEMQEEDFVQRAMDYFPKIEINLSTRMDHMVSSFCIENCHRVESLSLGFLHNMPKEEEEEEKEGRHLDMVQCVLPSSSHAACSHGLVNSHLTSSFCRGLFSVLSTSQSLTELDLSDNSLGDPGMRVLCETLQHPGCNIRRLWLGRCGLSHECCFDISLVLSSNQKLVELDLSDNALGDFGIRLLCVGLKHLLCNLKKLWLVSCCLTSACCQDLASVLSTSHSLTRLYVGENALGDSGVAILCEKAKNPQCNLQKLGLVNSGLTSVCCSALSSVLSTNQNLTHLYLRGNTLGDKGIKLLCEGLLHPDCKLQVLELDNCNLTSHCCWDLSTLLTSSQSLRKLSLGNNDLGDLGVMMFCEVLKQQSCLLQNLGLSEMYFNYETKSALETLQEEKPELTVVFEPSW
The following method step-by-step assay was followed for compound screening. • 1. Seed THP-1 cells (25,000 cells/well) containing 1.0 μg/ml LPS in 40 μl of RPMI medium (without FBS) in 96-well, black walled, clear bottom cell culture plates coated with poly-D-lysine (VWR #734-0317) • 2. Add 5 μl compound (8 points four-fold dilution or 8 points half-log dilution, with 10 μM top dose, unless stated otherwise) or vehicle (DMSO 0.1% FAC) to the appropriate wells • 3. Incubate for 3 hrs at 37° C. and 5% CO2 • 4. Add 5 μl nigericin (Sigma #N7143) (FAC 5 μM) to all wells • 5. Incubate for 1 hr at 37° C. and 5% CO2 • 6. At the end of the incubation period, spin plates at 300×g for 3 mins and remove supernatant • 7. Then add 50 μl of resazurin (Sigma #R^7017) (FAC 100 μM resazurin in RPMI medium without FBS) and incubate plates for a further 1-2 hrs at 37° C. and 5% CO2 • 8. Plates were read in an Envision reader at Ex 560 nm and Em 590 nm • 9. IC50 data is fitted to a non-linear regression equation (log inhibitor vs response-variable slope 4-parameters)
A general note: Alamar Blue is a resazurin reagent that responds to reducing activity.

Compound `O=S(=O)(CC1CCCO1)c1nnc(Nc2c3c(cc4c2CCC4)CCC3)[nH]1` (stereo not drawn) [Example 67, N-(1,2,3,5,6,7-hexahydro-s-indacen-4-yl)-3-(((tetrahydrofuran-2-yl)methyl)sulfonyl)-1H-1,2,4-triazol-5-amine] had an IC50 of at most 10 µM.

For `CNC(=O)CS(=O)(=O)c1nnc(Nc2c3c(cc4c2CCC4)CCC3)[nH]1` [Example 68, 2-((5-((1,2,3,5,6,7-hexahydro-s-indacen-4-yl)amino)-4H-1,2,4-triazol-3-yl)sulfonyl)-N-methylacetamide], the IC50 is at most 5 µM.

`Cc1noc(CS(=O)(=O)c2nnc(Nc3c4c(cc5c3CCC5)CCC4)[nH]2)n1` [Example 70, N-(1,2,3,5,6,7-hexahydro-s-indacen-4-yl)-3-(((3-methyl-1,2,4-oxadiazol-5-yl)methyl)sulfonyl)-1H-1,2,4-triazol-5-amine] had an IC50 of at most 5 µM.

Compound `O=S(=O)(Cc1ccccn1)c1nnc(Nc2c3c(cc4c2CCC4)CCC3)[nH]1` [Example 71, N-(1,2,3,5,6,7-hexahydro-s-indacen-4-yl)-3-((pyridin-2-ylmethyl)sulfonyl)-1H-1,2,4-triazol-5-amine] showed an IC50 of at most 10 µM.

`O=S(=O)(Cc1ccncc1)c1nnc(Nc2c3c(cc4c2CCC4)CCC3)[nH]1` [Example 72, N-(1,2,3,5,6,7-hexahydro-s-indacen-4-yl)-3-((pyridin-4-ylmethyl)sulfonyl)-1H-1,2,4-triazol-5-amine] displayed an IC50 of at most 10 µM.

`O=S(=O)(Cc1cccnc1)c1nnc(Nc2c3c(cc4c2CCC4)CCC3)[nH]1` [Example 73, N-(1,2,3,5,6,7-hexahydro-s-indacen-4-yl)-3-((pyridin-3-ylmethyl)sulfonyl)-1H-1,2,4-triazol-5-amine]: the IC50 is at most 10 µM.

In turn, `CN(C)c1cccc(CS(=O)(=O)c2nnc(Nc3c4c(cc5c3CCC5)CCC4)[nH]2)c1` [Example 74, 3-((3-(dimethylamino)benzyl)sulfonyl)-N-(1,2,3,5,6,7-hexahydro-s-indacen-4-yl)-1H-1,2,4-triazol-5-amine] returned an IC50 of at most 5 µM.

In the case of `CCN(CC)CCCS(=O)(=O)c1nnc(Nc2c(-c3ccccc3)cc(F)c3c2CCC3)[nH]1` [Example 78, 5-((3-(diethylamino)propyl)sulfonyl)-N-(7-fluoro-5-phenyl-2,3-dihydro-1H-inden-4-yl)-4H-1,2,4-triazol-3-amine], the IC50 was at most 10 µM.

`CC(C)CCNS(=O)(=O)c1nnc(Nc2c3c(cc4c2CCC4)CCC3)[nH]1` [Example 82, 5-((1,2,3,5,6,7-hexahydro-s-indacen-4-yl)amino)-N-isopentyl-1H-1,2,4-triazole-3-sulfonamide] returned an IC50 of at most 10 µM.

In the case of `COCCNS(=O)(=O)c1nnc(Nc2c3c(cc4c2CCC4)CCC3)[nH]1` [Example 83, 5-((1,2,3,5,6,7-hexahydro-s-indacen-4-yl)amino)-N-(2-methoxyethyl)-4H-1,2,4-triazole-3-sulfonamide], the IC50 is at most 10 µM.

Take `CN1CCC(NS(=O)(=O)c2nnc(Nc3c4c(cc5c3CCC5)CCC4)[nH]2)C1` (stereo not drawn) [Example 84, 5-((1,2,3,5,6,7-hexahydro-s-indacen-4-yl)amino)-N-(1-methylpyrrolidin-3-yl)-4H-1,2,4-triazole-3-sulfonamide]: the concentration for half-maximal inhibition (IC50) is at most 5 µM.

Compound `O=S(=O)(Nc1ccccc1)c1nnc(Nc2c3c(cc4c2CCC4)CCC3)[nH]1` [Example 85, 5-((1,2,3,5,6,7-hexahydro-s-indacen-4-yl)amino)-N-phenyl-4H-1,2,4-triazole-3-sulfonamide] yielded an IC50 of at most 10 µM.

The compound `O=S(=O)(NCc1ccccc1)c1nnc(Nc2c3c(cc4c2CCC4)CCC3)[nH]1` [Example 86, N-benzyl-5-((1,2,3,5,6,7-hexahydro-s-indacen-4-yl)amino)-4H-1,2,4-triazole-3-sulfonamide] had an IC50 of at most 5 µM.

For `CN1CC(CNS(=O)(=O)c2nnc(Nc3c4c(cc5c3CCC5)CCC4)[nH]2)C1` [Example 88, 5-((1,2,3,5,6,7-hexahydro-s-indacen-4-yl)amino)-N-((1-methazetidin-3-yl)methyl)-4H-1,2,4-triazole-3-sulfonamide], the IC50 is at most 5 µM.

With `CN1CCC(N(C)S(=O)(=O)c2nnc(Nc3c4c(cc5c3CCC5)CCC4)[nH]2)CC1` [Example 90, 5-((1,2,3,5,6,7-hexahydro-s-indacen-4-yl)amino)-N-methyl-N-(1-methylpiperidin-4-yl)-4H-1,2,4-triazole-3-sulfonamide], the half-inhibitory concentration (IC50) is at most 10 µM.

In turn, `CN1CCC(CN(C)S(=O)(=O)c2nnc(Nc3c4c(cc5c3CCC5)CCC4)[nH]2)C1` (stereo not drawn) [Example 92, 5-((1,2,3,5,6,7-hexahydro-s-indacen-4-yl)amino)-N-methyl-N-((1-methylpyrrolidin-3-yl)methyl)-4H-1,2,4-triazole-3-sulfonamide] showed an IC50 of at most 10 µM.

Turning to `O=S(=O)(NCc1ccncc1)c1nnc(Nc2c3c(cc4c2CCC4)CCC3)[nH]1` [Example 96, 5-((1,2,3,5,6,7-hexahydro-s-indacen-4-yl)amino)-N-(pyridin-4-ylmethyl)-4H-1,2,4-triazole-3-sulfonamide], the IC50 was at most 5 µM.

Turning to `O=S(=O)(NCc1cccnc1)c1nnc(Nc2c3c(cc4c2CCC4)CCC3)[nH]1` [Example 97, 5-((1,2,3,5,6,7-hexahydro-s-indacen-4-yl)amino)-N-(pyridin-3-ylmethyl)-4H-1,2,4-triazole-3-sulfonamide], the IC50 was at most 5 µM.

`O=S(=O)(NCc1ccccn1)c1nnc(Nc2c3c(cc4c2CCC4)CCC3)[nH]1` [Example 98, 5-((1,2,3,5,6,7-hexahydro-s-indacen-4-yl)amino)-N-(pyridin-2-ylmethyl)-4H-1,2,4-triazole-3-sulfonamide]: the IC50 was at most 5 µM.

`Cn1cc(NS(=O)(=O)c2nnc(Nc3c4c(cc5c3CCC5)CCC4)[nH]2)cn1` [Example 99, 5-((1,2,3,5,6,7-hexahydro-s-indacen-4-yl)amino)-N-(1-methyl-1H-pyrazol-4-yl)-4H-1,2,4-triazole-3-sulfonamide] yielded an IC50 of at most 10 µM.

Compound `CN1CCN(S(=O)(=O)c2nnc(Nc3c4c(cc5c3CCC5)CCC4)[nH]2)CC1` [Example 100, N-(1,2,3,5,6,7-hexahydro-s-indacen-4-yl)-5-((4-methylpiperazin-1-yl)sulfonyl)-4H-1,2,4-triazol-3-amine] yielded an IC50 of at most 5 µM.

The compound `CN1CCC2CN(S(=O)(=O)c3nnc(Nc4c5c(cc6c4CCC6)CCC5)[nH]3)CC21` (stereo not drawn) [Example 101, N-(1,2,3,5,6,7-hexahydro-s-indacen-4-yl)-5-((1-methylhexahydropyrrolo[3,4-b]pyrrol-5 (1H)-yl)sulfonyl)-4H-1,2,4-triazol-3-amine] displayed an IC50 of at most 5 µM.

For the compound `CN1CCC(NS(=O)(=O)c2nnc(Nc3c4c(cc5c3CCC5)CCC4)[nH]2)CC1` [Example 102, 5-((1,2,3,5,6,7-hexahydro-s-indacen-4-yl)amino)-N-(1-methylpiperidin-4-yl)-4H-1,2,4-triazole-3-sulfonamide], the IC50 is at most 10 µM.

The compound `O=c1cccc(CNS(=O)(=O)c2nnc(Nc3c4c(cc5c3CCC5)CCC4)[nH]2)[nH]1` [Example 103, 5-((1,2,3,5,6,7-hexahydro-s-indacen-4-yl)amino)-N-((6-oxo-1,6-dihydropyridin-2-yl)methyl)-4H-1,2,4-triazole-3-sulfonamide] yielded an IC50 of at most 5 µM.
